{"source": "the supplement of paper PMC10307832", "experiment_in_all_cases": "relative viability (nuclei count vs DMSO), 5 days (fraction); higher = more cells survive", "key": {"EMC-BAC-2": {"system": "EMC-BAC-2", "how_it_was_run": "(§1)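 Lung cancer cell lines were seeded in 1536-well plates and dosed by pin tool the next day, with either a single drug or a fixed anchor-drug dose combined with five library-drug doses (not always all listed) spaced in √10 steps. Five days later, one step fixed the cells and stained their nuclei (final 0.05% Triton X-100, 1% formaldehyde, 1 ug/ml Hoechst), and nuclei were counted on 4× images. Relative viability is the nuclei count in treated wells divided by the count in vehicle wells, and each value is the median of duplicate plates.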"}, "NCI-H1944": {"system": "NCI-H1944", "how_it_was_run": "as §1"}, "A-427": {"system": "A-427", "how_it_was_run": "as §1"}, "NCI-H1793": {"system": "NCI-H1793", "how_it_was_run": "as §1"}, "NCI-H2228": {"system": "NCI-H2228", "how_it_was_run": "as §1"}, "SW 900": {"system": "SW 900", "how_it_was_run": "as §1"}, "COR-L23": {"system": "COR-L23", "how_it_was_run": "as §1"}, "NCI-H1993": {"system": "NCI-H1993", "how_it_was_run": "as §1"}, "SW 1573": {"system": "SW 1573", "how_it_was_run": "as §1"}, "PC-3 [JPC-3]": {"system": "PC-3 [JPC-3]", "how_it_was_run": "as §1"}, "ABC-1": {"system": "ABC-1", "how_it_was_run": "as §1"}, "NCI-H2170": {"system": "NCI-H2170", "how_it_was_run": "as §1"}, "NCI-H727": {"system": "NCI-H727", "how_it_was_run": "as §1"}, "HOP-62": {"system": "HOP-62", "how_it_was_run": "as §1"}, "NCI-H596": {"system": "NCI-H596", "how_it_was_run": "as §1"}, "NCI-H2009": {"system": "NCI-H2009", "how_it_was_run": "as §1"}, "LK-2": {"system": "LK-2", "how_it_was_run": "as §1"}, "NCI-H3122": {"system": "NCI-H3122", "how_it_was_run": "as §1"}, "SK-LU-1": {"system": "SK-LU-1", "how_it_was_run": "as §1"}, "SK-MES-1": {"system": "SK-MES-1", "how_it_was_run": "as §1"}, "LXF-289": {"system": "LXF-289", "how_it_was_run": "as §1"}, "HARA": {"system": "HARA", "how_it_was_run": "as §1"}}}
{"compound": "Oc1nc(-c2ccc(C(F)(F)F)cc2)nc2c1CSCC2", "note": "[XAV939] + Cc1cc(Nc2cc(N3CCN(C)CC3)nc(Sc3ccc(NC(=O)C4CC4)cc3)n2)n[nH]1 [Tozasertib] (partner 0.1 µM)", "values": [{"measurement": "relative viability", "setting": "EMC-BAC-2; first compound 0.08 µM", "value": 0.272}, {"measurement": "relative viability", "setting": "EMC-BAC-2; first compound 0.253 µM", "value": 0.283}, {"measurement": "relative viability", "setting": "EMC-BAC-2; first compound 0.8 µM", "value": 0.259}, {"measurement": "relative viability", "setting": "EMC-BAC-2; first compound 2.53 µM", "value": 0.201}, {"measurement": "relative viability", "setting": "NCI-H1944; first compound 0.08 µM", "value": 0.261}, {"measurement": "relative viability", "setting": "NCI-H1944; first compound 0.253 µM", "value": 0.228}, {"measurement": "relative viability", "setting": "NCI-H1944; first compound 0.8 µM", "value": 0.235}, {"measurement": "relative viability", "setting": "NCI-H1944; first compound 2.53 µM", "value": 0.224}, {"measurement": "relative viability", "setting": "A-427; first compound 0.08 µM", "value": 0.238}, {"measurement": "relative viability", "setting": "A-427; first compound 0.253 µM", "value": 0.164}, {"measurement": "relative viability", "setting": "A-427; first compound 0.8 µM", "value": 0.19}, {"measurement": "relative viability", "setting": "A-427; first compound 2.53 µM", "value": 0.193}, {"measurement": "relative viability", "setting": "NCI-H1793; first compound 0.08 µM", "value": 0.403}, {"measurement": "relative viability", "setting": "NCI-H1793; first compound 0.253 µM", "value": 0.297}, {"measurement": "relative viability", "setting": "NCI-H1793; first compound 0.8 µM", "value": 0.306}, {"measurement": "relative viability", "setting": "NCI-H1793; first compound 2.53 µM", "value": 0.263}, {"measurement": "relative viability", "setting": "NCI-H2228; first compound 0.08 µM", "value": 0.31}, {"measurement": "relative viability", "setting": "NCI-H2228; first compound 0.253 µM", "value": 0.23}, {"measurement": "relative viability", "setting": "NCI-H2228; first compound 0.8 µM", "value": 0.247}, {"measurement": "relative viability", "setting": "NCI-H2228; first compound 2.53 µM", "value": 0.255}, {"measurement": "relative viability", "setting": "SW 900; first compound 0.08 µM", "value": 0.663}, {"measurement": "relative viability", "setting": "SW 900; first compound 0.253 µM", "value": 0.549}, {"measurement": "relative viability", "setting": "SW 900; first compound 0.8 µM", "value": 0.535}, {"measurement": "relative viability", "setting": "SW 900; first compound 2.53 µM", "value": 0.323}, {"measurement": "relative viability", "setting": "COR-L23; first compound 0.08 µM", "value": 0.194}, {"measurement": "relative viability", "setting": "COR-L23; first compound 0.253 µM", "value": 0.195}, {"measurement": "relative viability", "setting": "COR-L23; first compound 0.8 µM", "value": 0.225}, {"measurement": "relative viability", "setting": "COR-L23; first compound 2.53 µM", "value": 0.154}, {"measurement": "relative viability", "setting": "NCI-H1993; first compound 0.08 µM", "value": 0.559}, {"measurement": "relative viability", "setting": "NCI-H1993; first compound 0.253 µM", "value": 0.605}, {"measurement": "relative viability", "setting": "NCI-H1993; first compound 0.8 µM", "value": 0.551}, {"measurement": "relative viability", "setting": "NCI-H1993; first compound 2.53 µM", "value": 0.59}, {"measurement": "relative viability", "setting": "SW 1573; first compound 0.08 µM", "value": 0.174}, {"measurement": "relative viability", "setting": "SW 1573; first compound 0.253 µM", "value": 0.139}, {"measurement": "relative viability", "setting": "SW 1573; first compound 0.8 µM", "value": 0.211}, {"measurement": "relative viability", "setting": "SW 1573; first compound 2.53 µM", "value": 0.213}, {"measurement": "relative viability", "setting": "PC-3 [JPC-3]; first compound 0.08 µM", "value": 0.901}, {"measurement": "relative viability", "setting": "PC-3 [JPC-3]; first compound 0.253 µM", "value": 0.833}, {"measurement": "relative viability", "setting": "PC-3 [JPC-3]; first compound 0.8 µM", "value": 0.857}, {"measurement": "relative viability", "setting": "PC-3 [JPC-3]; first compound 2.53 µM", "value": 0.744}, {"measurement": "relative viability", "setting": "ABC-1; first compound 0.08 µM", "value": 0.126}, {"measurement": "relative viability", "setting": "ABC-1; first compound 0.253 µM", "value": 0.169}, {"measurement": "relative viability", "setting": "ABC-1; first compound 0.8 µM", "value": 0.166}, {"measurement": "relative viability", "setting": "ABC-1; first compound 2.53 µM", "value": 0.165}, {"measurement": "relative viability", "setting": "NCI-H2170; first compound 0.08 µM", "value": 0.763}, {"measurement": "relative viability", "setting": "NCI-H2170; first compound 0.253 µM", "value": 0.606}, {"measurement": "relative viability", "setting": "NCI-H2170; first compound 0.8 µM", "value": 0.66}, {"measurement": "relative viability", "setting": "NCI-H2170; first compound 2.53 µM", "value": 0.463}, {"measurement": "relative viability", "setting": "NCI-H727; first compound 0.08 µM", "value": 0.69}, {"measurement": "relative viability", "setting": "NCI-H727; first compound 0.253 µM", "value": 0.543}, {"measurement": "relative viability", "setting": "NCI-H727; first compound 0.8 µM", "value": 0.769}, {"measurement": "relative viability", "setting": "NCI-H727; first compound 2.53 µM", "value": 0.62}, {"measurement": "relative viability", "setting": "HOP-62; first compound 0.08 µM", "value": 0.372}, {"measurement": "relative viability", "setting": "HOP-62; first compound 0.253 µM", "value": 0.339}, {"measurement": "relative viability", "setting": "HOP-62; first compound 0.8 µM", "value": 0.338}, {"measurement": "relative viability", "setting": "HOP-62; first compound 2.53 µM", "value": 0.329}, {"measurement": "relative viability", "setting": "NCI-H596; first compound 0.08 µM", "value": 0.915}, {"measurement": "relative viability", "setting": "NCI-H596; first compound 0.253 µM", "value": 0.798}, {"measurement": "relative viability", "setting": "NCI-H596; first compound 0.8 µM", "value": 1.07}, {"measurement": "relative viability", "setting": "NCI-H596; first compound 2.53 µM", "value": 0.939}, {"measurement": "relative viability", "setting": "NCI-H2009; first compound 0.08 µM", "value": 0.84}, {"measurement": "relative viability", "setting": "NCI-H2009; first compound 0.253 µM", "value": 0.66}, {"measurement": "relative viability", "setting": "NCI-H2009; first compound 0.8 µM", "value": 0.713}, {"measurement": "relative viability", "setting": "NCI-H2009; first compound 2.53 µM", "value": 0.647}, {"measurement": "relative viability", "setting": "LK-2; first compound 0.08 µM", "value": 0.185}, {"measurement": "relative viability", "setting": "LK-2; first compound 0.253 µM", "value": 0.171}, {"measurement": "relative viability", "setting": "LK-2; first compound 0.8 µM", "value": 0.157}, {"measurement": "relative viability", "setting": "LK-2; first compound 2.53 µM", "value": 0.172}, {"measurement": "relative viability", "setting": "NCI-H3122; first compound 0.08 µM", "value": 0.569}, {"measurement": "relative viability", "setting": "NCI-H3122; first compound 0.253 µM", "value": 0.407}, {"measurement": "relative viability", "setting": "NCI-H3122; first compound 0.8 µM", "value": 0.389}, {"measurement": "relative viability", "setting": "NCI-H3122; first compound 2.53 µM", "value": 0.337}, {"measurement": "relative viability", "setting": "SK-LU-1; first compound 0.08 µM", "value": 0.35}, {"measurement": "relative viability", "setting": "SK-LU-1; first compound 0.253 µM", "value": 0.267}, {"measurement": "relative viability", "setting": "SK-LU-1; first compound 0.8 µM", "value": 0.322}, {"measurement": "relative viability", "setting": "SK-LU-1; first compound 2.53 µM", "value": 0.279}, {"measurement": "relative viability", "setting": "SK-MES-1; first compound 0.08 µM", "value": 0.956}, {"measurement": "relative viability", "setting": "SK-MES-1; first compound 0.253 µM", "value": 0.816}, {"measurement": "relative viability", "setting": "SK-MES-1; first compound 0.8 µM", "value": 0.807}, {"measurement": "relative viability", "setting": "SK-MES-1; first compound 2.53 µM", "value": 0.768}, {"measurement": "relative viability", "setting": "LXF-289; first compound 0.08 µM", "value": 0.215}, {"measurement": "relative viability", "setting": "LXF-289; first compound 0.253 µM", "value": 0.187}, {"measurement": "relative viability", "setting": "LXF-289; first compound 0.8 µM", "value": 0.161}, {"measurement": "relative viability", "setting": "LXF-289; first compound 2.53 µM", "value": 0.111}, {"measurement": "relative viability", "setting": "HARA; first compound 0.08 µM", "value": 0.107}, {"measurement": "relative viability", "setting": "HARA; first compound 0.253 µM", "value": 0.0774}, {"measurement": "relative viability", "setting": "HARA; first compound 0.8 µM", "value": 0.102}, {"measurement": "relative viability", "setting": "HARA; first compound 2.53 µM", "value": 0.103}]}
